Active and inactive are the calls of the source.
Experiments:
C3H 10T1/2 [1] = test: Anti-adipogenic activity in MDI-cocktail differentiated mouse C3H 10T1/2 cells assessed as reduction in adipogenic differentiation at 5 uM measured after 0 to 5 days by Oil Red O staining based microscopic analysis; assay type: functional, cell-based; conditions: time 0-5 day
3T3-L1 [2] = test: Induction of mitochondrial respiration in MDI-cocktail differentiated mouse 3T3-L1 pre-adipocyte cells assessed as increase in oxygen consumption rate at 5 uM incubated for 72 hrs in presence of oligomycin by Seahorse XFp flux analyzer; assay type: functional, cell-based
C3H 10T1/2 [3] = test: Anti-adipogenic activity in MDI-cocktail differentiated mouse C3H 10T1/2 cells assessed as reduction in adipogenic differentiation at 5 uM measured after 3 to 5 days by Oil Red O staining based microscopic analysis; assay type: functional, cell-based; conditions: time 3-5 day
C3H 10T1/2 [4] = test: Anti-adipogenic activity in MDI-cocktail differentiated mouse C3H 10T1/2 cells assessed as reduction in adipogenic differentiation at 5 uM measured after 0 to 7 days by Oil Red O staining based microscopic analysis; assay type: functional, cell-based; conditions: time 0-7 day
Syrian golden hamster [5] = test: Anti-dyslipidaemic activity in high-fat diet induced Syrian golden hamster model assessed as assessed as increase in serum HDL level at 25 to 50 mg/kg, po administered for 7 days; assay type: functional, organism-based; conditions: Mesocricetus auratus, dose 25-50 mg/kg, time 7.0 day
Syrian golden hamster [6] = test: Anti-dyslipidaemic activity in high-fat diet induced Syrian golden hamster model assessed as assessed as reduction in serum total cholesterol level at 25 to 50 mg/kg, po administered for 7 days; assay type: functional, organism-based; conditions: Mesocricetus auratus, dose 25-50 mg/kg, time 7.0 day
3T3-L1 [7] = test: Activation of AMPK pathway in mouse 3T3-L1 mature adipocyte cells assessed as reversal of 6-(4-(2-(piperidin-1-yl)ethoxy)phenyl)-3-(pyridin-4yl)pyrazolo[1,5-a]pyrimidine induced AMPK inhibition at 5 uM incubated for 24 hrs by immunoblotting analysis; assay type: cell-based; conditions: filed as activator
3T3-L1 [8] = test: Inhibition of MDI-cocktail induced AKT phosphorylation at Ser473 residue in mouse 3T3-L1 pre-adipocyte cells at 5 uM by immunoblotting analysis; assay type: cell-based
Mesocricetus auratus = test: In vivo activation of AMPK in high-fat diet induced Syrian golden hamster model assessed as increase in AMPK phosphorylation at Th172 residue in eWAT at 50 mg/kg, po administered for 7 days by Western blot analysis; assay type: functional, organism-based; conditions: time 7.0 day
Syrian golden hamster [9] = test: Anti-dyslipidaemic activity in high-fat diet induced Syrian golden hamster model assessed as assessed as reduction in serum LDL-cholesterol level at 25 to 50 mg/kg, po administered for 7 days; assay type: functional, organism-based; conditions: Mesocricetus auratus, dose 25-50 mg/kg, time 7.0 day
3T3-L1 [10] = test: Induction of mitochondrial respiration in MDI-cocktail differentiated mouse 3T3-L1 pre-adipocyte cells assessed as increase in oxygen consumption rate at 5 uM incubated for 72 hrs in presence of rotenone/antimycin A mixture by Seahorse XFp flux analyzer; assay type: functional, cell-based
Syrian golden hamster [11] = test: Anti-obesity activity in high-fat diet induced Syrian golden hamster model assessed as reduction in lean mass at 50 mg/kg, po administered for 7 days by 1H NMR spectroscopy-based Echo MRI system; assay type: functional, organism-based; conditions: Mesocricetus auratus, time 7.0 day
3T3-L1 [12] = test: Induction of spare respiratory capacity during early phase in MDI-cocktail differentiated mouse 3T3-L1 pre-adipocyte cells 5 uM incubated for 72 hrs by Seahorse XFp flux analyzer; assay type: functional, cell-based
3T3-L1 [13] = test: Upregulation of CV-ATP5A protein expression in mouse 3T3-L1 mature adipocytes at 1 to 5 uM incubated for 24 hrs by Western blot analysis; assay type: functional, cell-based; conditions: dose 1-5 µM

Cc1ccc(-c2cnc(-c3ccc[n+](Cc4cccc(C)c4)c3)o2)cc1.[Br-]
active: Activity (C3H 10T1/2 [1]) | Activity (3T3-L1 [2]) | Activity (C3H 10T1/2 [3]) | Activity (C3H 10T1/2 [4]) | Activity (Syrian golden hamster [6]) | Activity (3T3-L1 [7]) | inhibition (3T3-L1 [8]) | Activity (Mesocricetus auratus) | Activity (Syrian golden hamster [9]) | Activity (3T3-L1 [10]) | Activity (Syrian golden hamster [11]) | Activity (3T3-L1 [12]) | Activity (3T3-L1 [13])
inactive: Activity (Syrian golden hamster [5])

From ChEMBL document CHEMBL5634151, “Anti-adipogenic action of a novel oxazole derivative through activation of AMPK pathway” (Eur J Med Chem, 2023)
